Source: patent US20240148623A1, “GADUSOL AND GADUSPORINE COMPOUND FORMULATIONS FOR TOPICALS” (GADUSOL LABORATORIES, INC., priority 2021, published 2024)
Read-outs that look alike come from different tables or passages of the source. Each block holds one molecule with its values, some of them ahead of it.

How the values were obtained:
[1] = Storage stability of gadusol; format: physicochemical; conditions: after 90 days at pH 2.5
Description: Addition of an antioxidant could be helpful in increasing the shelf life of gadusol. The stability of gadusol is much higher when stored under acidic conditions. For example, 90% activity was retained after 90 days at pH 2.5. Therefore, storage under acidic conditions may be useful for stabilizing gadusol generally, e.g., prior to introduction into a topical formulation. Combining gadusol with another antioxidant may be useful for extending the shelf life or stability of gadusol in a topical formulation. Storage of gadusol in nitrogen-purged solutions in containers with minimal headspace increased its stability.

Comet assay = format: cell-based
Description: (§1) The cellular toxicity of gadusol was compared to that of a common sunscreen ingredient, oxybenzone. Vero E6 fibroblasts were used to evaluate toxicity.

E. coli = assay: Toxicity towards E. coli; format: cell-based
[2] = Antioxidant capacity, Folin-Ciocalteu method; conditions: 0.3 to 10 mg/ml, versus porphyra-334
Vero E6 fibroblasts = assay: Cellular toxicity in Vero E6 fibroblasts; format: cell-based; conditions: compared to oxybenzone
Description: as §1

cells = assay: In vivo antioxidant testing (intracytoplasmic activity in cells); format: cell-based; conditions: for lysis of the cells: highest dose 3.3 mg/ml
Description: The test is designed to measure antioxidant power but requires also that the anti-oxidant agent cross the cell's lipid boundary layer so that only intracytoplasmic activity is measured. […] Some activity was seen even at concentrations below 0.1 mg/ml.

Ames test (mutagenicity) = format: cell-based
[3] = cited from earlier work
[4] = UV absorbance (absorption maximum, molar extinction coefficient); format: physicochemical; conditions: for UV maximum: under acidic conditions
Description: Gadusol, gadusporine A 100, gadusporine, B 102, and gadusporine C 104 may be isolated by column purification of Streptomyces coelicolor culture broth (as described in the above publication).
Despite the only difference being a hydroxy group, there are a few notable differences between shinorine and gadusporine A 100. Shinorine has been reported to have an absorption max=330 nm at pH 1.7 and an absorption max=334 nm at pH 7. […] Gadusporine A 100 has a molar extinction coefficient (□□=49,400, as measured in 50 mM phosphate buffer at pH 7.0, which is slightly higher than that of shinorine (□□=44,000), and thus has stronger UV absorbance activity.

Solubility in methanol = format: physicochemical
Description: Gadusporine B 102 contains L-alanine and glycine, making gadusporine B 102 an analog of mycosporine-glycine-alanine.

Molecule: COC1=C(O)CC(O)(CO)C(O)C1=O (stereo not shown) [Gadusol]
activity retained [1]: 90%
toxicity in comet assay (Comet assay): nor toxic in the comet assay
toxicity towards E. coli (E. coli): nor toxic towards E. coli
antioxidant power [2]: equivalent to a mycosporine compound
cellular toxicity (Vero E6 fibroblasts): less toxic than oxybenzone
in vivo antioxidant activity (cells; at about 1 mg/ml, versus the mycosporine): significantly more active antioxidant
lysis of the cells (cells): some lysis of the cells
in vivo antioxidant activity (cells; overall, compared with porphyra-334): outperformed porphyra-334
mutagenicity (Ames test (mutagenicity)): not to be mutagenic

Molecule: COC1=C(NCC(=O)O)C[C@@](O)(CO)C/C1=N\[C@@H](CO)C(=O)O [Shinorine]
absorption max ([3]; pH 1.7, reported): 330 nm
absorption max ([3]; pH 7, reported): 334 nm
molar extinction coefficient ([3]; shinorine comparison value): 44,000

Molecule: Gadusporine A
molar extinction coefficient ([4]; 50 mM phosphate buffer at pH 7.0, in M-1 cm-1 (unit assumed)): 49,400
absorption max ([4]; pH 2.0): 338
absorption max ([4]; pH 7.0): 340 nm
UV maximum [4]: 338 nm

The next lines start with the values.

lysis of the cells (cells): some lysis of the cells
Molecule: COC1=C(NCC(=O)O)C[C@@](O)(CO)CC1=N[C@H](C(=O)O)[C@@H](C)O [porphyra-334, reference compound]

solubility in methanol (Solubility in methanol): not very soluble in methanol
UV maximum [4]: 338 nm
Molecule: Gadusporine B
